Source: the supplement of paper PMC10307832

Key:
Assay in all cases: relative viability (nuclei count vs DMSO), 5 days (fraction); higher = more cells survive
NCI-H520 = test system: NCI-H520
Summary of the method: (§1)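 After 5 days of treatment, lung cancer cells in 1536-well plates were fixed and stained in a single step (final 0.05% Triton X-100, 1% formaldehyde, 1 ug/ml Hoechst) and their nuclei counted on 4× images. Treatment had been applied by pin tool the day after seeding as one drug alone or as a fixed anchor-drug dose with five library-drug doses (not always all listed) in √10 steps. Relative viability is the nuclei count of treated wells divided by that of vehicle wells, and values are medians of duplicate plates.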

NCI-H1666 = test system: NCI-H1666
Summary of the method: as §1

HOP-62 = test system: HOP-62
Summary of the method: as §1

NCI-H1355 = test system: NCI-H1355
Summary of the method: as §1

HCC-827 = test system: HCC-827
Summary of the method: as §1

LU99A = test system: LU99A
Summary of the method: as §1

NCI-H838 = test system: NCI-H838
Summary of the method: as §1

NCI-H23 = test system: NCI-H23
Summary of the method: as §1

NCI-H596 = test system: NCI-H596
Summary of the method: as §1

EPLC-272H = test system: EPLC-272H
Summary of the method: as §1

PC-14 = test system: PC-14
Summary of the method: as §1

NCI-H322M = test system: NCI-H322M
Summary of the method: as §1

NCI-H2405 = test system: NCI-H2405
Summary of the method: as §1

NCI-H1975 = test system: NCI-H1975
Summary of the method: as §1

NCI-H3122 = test system: NCI-H3122
Summary of the method: as §1

NCI-H647 = test system: NCI-H647
Summary of the method: as §1

NCI-H727 = test system: NCI-H727
Summary of the method: as §1

NCI-H2170 = test system: NCI-H2170
Summary of the method: as §1

UMC-11 = test system: UMC-11
Summary of the method: as §1

BEN = test system: BEN
Summary of the method: as §1

NCI-H358 = test system: NCI-H358
Summary of the method: as §1

ABC-1 = test system: ABC-1
Summary of the method: as §1

In the case of `O=c1[nH]c2ccccc2n1C1CCN(CCCC(c2ccc(F)cc2)c2ccc(F)cc2)CC1` [Pimozide] + O=C(CCCCCCC(=O)Nc1ccccc1)NO [Vorinostat] (partner 1 µM), the relative viability (NCI-H520; first compound 0.08 µM) is reported as 0.727, the relative viability (NCI-H520; first compound 0.253 µM) is reported as 0.663 and the relative viability (NCI-H520; first compound 0.8 µM) is reported as 0.671. It also gave a relative viability (NCI-H520; first compound 2.53 µM) of 0.685, a relative viability (NCI-H520; first compound 8 µM) of 0.65 and a relative viability (NCI-H1666; first compound 0.08 µM) of 1.09. The relative viability (NCI-H1666; first compound 0.253 µM) was 0.905, the relative viability (NCI-H1666; first compound 0.8 µM) was 0.924 and the relative viability (NCI-H1666; first compound 2.53 µM) was 0.991. It also gave a relative viability (NCI-H1666; first compound 8 µM) of 1.02, a relative viability (HOP-62; first compound 0.08 µM) of 0.704 and a relative viability (HOP-62; first compound 0.253 µM) of 0.642. It also gave a relative viability (HOP-62; first compound 2.53 µM) of 0.494, a relative viability (HOP-62; first compound 8 µM) of 0.416 and a relative viability (NCI-H1355; first compound 0.08 µM) of 0.592. The relative viability (NCI-H1355; first compound 0.253 µM) was 0.597, the relative viability (NCI-H1355; first compound 0.8 µM) was 0.547 and the relative viability (NCI-H1355; first compound 2.53 µM) was 0.607. For the same compound, the relative viability (NCI-H1355; first compound 8 µM) was 0.608, the relative viability (HCC-827; first compound 0.253 µM) was 0.791 and the relative viability (HCC-827; first compound 0.8 µM) was 0.738. For the same compound, the relative viability (HCC-827; first compound 2.53 µM) was 0.785, the relative viability (HCC-827; first compound 8 µM) was 0.843 and the relative viability (LU99A; first compound 0.08 µM) was 0.595. It also gave a relative viability (LU99A; first compound 0.8 µM) of 0.418, a relative viability (LU99A; first compound 2.53 µM) of 0.5 and a relative viability (LU99A; first compound 8 µM) of 0.537. It also gave a relative viability (NCI-H838; first compound 0.08 µM) of 0.745, a relative viability (NCI-H838; first compound 0.253 µM) of 0.716 and a relative viability (NCI-H838; first compound 0.8 µM) of 0.663. The relative viability (NCI-H838; first compound 2.53 µM) was 0.702, the relative viability (NCI-H838; first compound 8 µM) was 0.705 and the relative viability (NCI-H23; first compound 0.08 µM) was 0.573. It also gave a relative viability (NCI-H23; first compound 0.253 µM) of 0.551, a relative viability (NCI-H23; first compound 0.8 µM) of 0.49 and a relative viability (NCI-H23; first compound 2.53 µM) of 0.575. It also gave a relative viability (NCI-H23; first compound 8 µM) of 0.52, a relative viability (NCI-H596; first compound 0.08 µM) of 0.702 and a relative viability (NCI-H596; first compound 0.253 µM) of 0.598. It also gave a relative viability (NCI-H596; first compound 0.8 µM) of 0.467, a relative viability (NCI-H596; first compound 2.53 µM) of 0.583 and a relative viability (NCI-H596; first compound 8 µM) of 0.549. It also gave a relative viability (EPLC-272H; first compound 0.08 µM) of 0.402, a relative viability (EPLC-272H; first compound 0.253 µM) of 0.453 and a relative viability (EPLC-272H; first compound 0.8 µM) of 0.417. For the same compound, the relative viability (EPLC-272H; first compound 2.53 µM) was 0.418, the relative viability (EPLC-272H; first compound 8 µM) was 0.307 and the relative viability (PC-14; first compound 0.253 µM) was 0.711. The relative viability (PC-14; first compound 0.8 µM) was 0.684, the relative viability (PC-14; first compound 2.53 µM) was 0.713 and the relative viability (PC-14; first compound 8 µM) was 0.701. For the same compound, the relative viability (NCI-H322M; first compound 0.08 µM) was 0.885, the relative viability (NCI-H322M; first compound 0.253 µM) was 0.844 and the relative viability (NCI-H322M; first compound 0.8 µM) was 0.88. For the same compound, the relative viability (NCI-H322M; first compound 2.53 µM) was 0.885, the relative viability (NCI-H322M; first compound 8 µM) was 0.786 and the relative viability (NCI-H2405; first compound 0.08 µM) was 1.01. It also gave a relative viability (NCI-H2405; first compound 0.253 µM) of 0.964, a relative viability (NCI-H2405; first compound 0.8 µM) of 0.955 and a relative viability (NCI-H2405; first compound 2.53 µM) of 1.01. It also gave a relative viability (NCI-H2405; first compound 8 µM) of 0.791, a relative viability (NCI-H1975; first compound 0.08 µM) of 0.746 and a relative viability (NCI-H1975; first compound 0.253 µM) of 0.676. The relative viability (NCI-H1975; first compound 0.8 µM) was 0.672, the relative viability (NCI-H1975; first compound 2.53 µM) was 0.696 and the relative viability (NCI-H1975; first compound 8 µM) was 0.563. For the same compound, the relative viability (NCI-H3122; first compound 0.08 µM) was 0.924, the relative viability (NCI-H3122; first compound 0.253 µM) was 0.951 and the relative viability (NCI-H3122; first compound 0.8 µM) was 0.81. The relative viability (NCI-H3122; first compound 2.53 µM) was 0.724, the relative viability (NCI-H3122; first compound 8 µM) was 0.847 and the relative viability (NCI-H647; first compound 0.08 µM) was 0.5. The relative viability (NCI-H647; first compound 0.253 µM) was 0.577, the relative viability (NCI-H647; first compound 0.8 µM) was 0.621 and the relative viability (NCI-H647; first compound 2.53 µM) was 0.268. The relative viability (NCI-H647; first compound 8 µM) was 0.431, the relative viability (NCI-H727; first compound 0.08 µM) was 1.2 and the relative viability (NCI-H727; first compound 0.253 µM) was 1.13. The relative viability (NCI-H727; first compound 0.8 µM) was 1.11, the relative viability (NCI-H727; first compound 2.53 µM) was 1.15 and the relative viability (NCI-H727; first compound 8 µM) was 1.17. For the same compound, the relative viability (NCI-H2170; first compound 0.08 µM) was 0.717, the relative viability (NCI-H2170; first compound 0.253 µM) was 0.848 and the relative viability (NCI-H2170; first compound 0.8 µM) was 0.808. The relative viability (NCI-H2170; first compound 2.53 µM) was 0.793, the relative viability (NCI-H2170; first compound 8 µM) was 0.771 and the relative viability (UMC-11; first compound 0.08 µM) was 0.426. For the same compound, the relative viability (UMC-11; first compound 0.253 µM) was 0.388, the relative viability (UMC-11; first compound 0.8 µM) was 0.348 and the relative viability (UMC-11; first compound 2.53 µM) was 0.382. The relative viability (UMC-11; first compound 8 µM) was 0.318, the relative viability (BEN; first compound 0.08 µM) was 0.558 and the relative viability (BEN; first compound 0.253 µM) was 0.579. The relative viability (BEN; first compound 0.8 µM) was 0.607, the relative viability (BEN; first compound 2.53 µM) was 0.601 and the relative viability (BEN; first compound 8 µM) was 0.603. For the same compound, the relative viability (NCI-H358; first compound 0.08 µM) was 0.697, the relative viability (NCI-H358; first compound 0.253 µM) was 0.685 and the relative viability (NCI-H358; first compound 0.8 µM) was 0.639. It also gave a relative viability (NCI-H358; first compound 2.53 µM) of 0.906, a relative viability (NCI-H358; first compound 8 µM) of 0.679 and a relative viability (ABC-1; first compound 0.08 µM) of 1.3. The relative viability (ABC-1; first compound 0.253 µM) was 1.15, the relative viability (ABC-1; first compound 0.8 µM) was 0.884 and the relative viability (ABC-1; first compound 2.53 µM) was 0.908. It also gave a relative viability (ABC-1; first compound 8 µM) of 0.719.
